Assay results from US8680012B2, “4-phenyl-pyrane-3,5-diones,4-phenyl-thiopyrane-3,6-diones and cyclohexanetriones as novel herbicides” (Syngenta Crop Protection LLC, priority 2006, dated 2014).

Assays:
Format in all cases: in vivo
[1] = test system: Amaranthus retroflexus (AMARE); experiment: Example B post-emergence herbicidal activity, glasshouse pot test; conditions: 312 h, rate 250 g/ha, evaluated after 13 days, read-out: Post-emergence activity AMARE (100=total damage to plant; 0=no damage to plant)
Procedure: (§1) Seeds of a variety of test species were sown in standard soil in pots. After cultivation for one day (pre-emergence) or after 8 days cultivation (post-emergence) under controlled conditions in a glasshouse (at 24/16° C., day/night; 14 hours light; 65% humidity), the plants were sprayed with an aqueous spray solution derived from the formulation of the technical active ingredient in acetone/water (50:50) solution containing 0.5% Tween 20 (polyoxyethelyene sorbitan monolaurate, CAS RN 9005-64-5). The test plants were then grown in a glasshouse under controlled conditions in a glasshouse (at 24/16° C., day/night; 14 hours light; 65% humidity) and watered twice daily. After 13 days for pre and post-emergence, the test was evaluated (100=total damage to plant; 0=no damage to plant).
(§2) Alopecurus myosuroides (ALOMY), Avena fatua (AVEFA), Setaria faberi (SETFA), Echinochloa crus-galli (ECHCG), Solanum nigrum (SOLNI) and Amaranthus retroflexus (AMARE)

[2] = test system: Alopecurus myosuroides (ALOMY); experiment: as above; conditions: 312 h, rate 250 g/ha, evaluated after 13 days, read-out: Post-emergence activity ALOMY (100=total damage to plant; 0=no damage to plant)
Procedure: as §1, §2

Setaria faberi (SETFA) [3] = experiment: as above; conditions: 312 h, rate 250 g/ha, evaluated after 13 days, read-out: Post-emergence activity SETFA (100=total damage to plant; 0=no damage to plant)
Procedure: as §1, §2

Avena fatua (AVEFA) [4] = experiment: as above; conditions: 312 h, rate 250 g/ha, evaluated after 13 days, read-out: Post-emergence activity AVEFA (100=total damage to plant; 0=no damage to plant)
Procedure: as §1, §2

[5] = test system: Echinochloa crus-galli (ECHCG); experiment: as above; conditions: 312 h, rate 250 g/ha, evaluated after 13 days, read-out: Post-emergence activity ECHCG (100=total damage to plant; 0=no damage to plant)
Procedure: as §1, §2

[6] = test system: Amaranthus retroflexus (AMARE); experiment: Example B pre-emergence herbicidal activity, glasshouse pot test; conditions: 312 h, rate 250 g/ha, evaluated after 13 days, read-out: Pre-emergence activity AMARE (100=total damage to plant; 0=no damage to plant)
Procedure: as §1, §2

[7] = test system: Alopecurus myosuroides (ALOMY); experiment: as above; conditions: 312 h, rate 250 g/ha, evaluated after 13 days, read-out: Pre-emergence activity ALOMY (100=total damage to plant; 0=no damage to plant)
Procedure: as §1, §2

Setaria faberi (SETFA) [8] = experiment: as above; conditions: 312 h, rate 250 g/ha, evaluated after 13 days, read-out: Pre-emergence activity SETFA (100=total damage to plant; 0=no damage to plant)
Procedure: as §1, §2

Avena fatua (AVEFA) [9] = experiment: as above; conditions: 312 h, rate 250 g/ha, evaluated after 13 days, read-out: Pre-emergence activity AVEFA (100=total damage to plant; 0=no damage to plant)
Procedure: as §1, §2

[10] = test system: Echinochloa crus-galli (ECHCG); experiment: as above; conditions: 312 h, rate 250 g/ha, evaluated after 13 days, read-out: Pre-emergence activity ECHCG (100=total damage to plant; 0=no damage to plant)
Procedure: as §1, §2

Compound | pest or weed control at 250 g/ha [1] | pest or weed control at 250 g/ha [2] | pest or weed control at 250 g/ha (Setaria faberi (SETFA) [3]) | pest or weed control at 250 g/ha (Avena fatua (AVEFA) [4]) | pest or weed control at 250 g/ha [5] | pest or weed control at 250 g/ha [6] | pest or weed control at 250 g/ha [7] | pest or weed control at 250 g/ha (Setaria faberi (SETFA) [8]) | pest or weed control at 250 g/ha (Avena fatua (AVEFA) [9]) | pest or weed control at 250 g/ha [10]
Cc1ccc(-c2ccc(Cl)cc2F)cc1C1=C(O)C(C)(C)OC(C)(C)C1=O [Compound A-59] | 0% | 30% | 90% | 50% | 100% | 0% | 30% | 40% | 40% | 90%
CCc1ccc(-c2ccc(Cl)c(F)c2)cc1C1=C(O)[C@]2(C)O[C@@H](CC2COC)C1=O (some centres unmarked) [Compound A-127] | 0% | 80% | 100% | 40% | 100% | 0% | 30% | 90% | 70% | 50%
COc1ccc(-c2ccc(Cl)cc2F)cc1C1=C(O)C(C)(C)OC(C)(C)C1=O [Compound A-103] | 0% | 10% | 100% | 0% | 100% | 0% | 0% | 0% | 0% | 0%
Cc1ccc(-c2cnn(Cc3ccccc3)c2)cc1C1=C(O)C(C)(C)OC(C)(C)C1=O [Compound A-143] | 0% | 90% | 90% | 80% | 100% | 0% | 20% | 70% | 0% | 0%
CC[C@]12CC[C@H](O1)C(=O)C(c1cc(-c3ccc(Cl)cc3)ccc1C)=C2O (single isomer, unassigned) [Compound A-80] | 0% | 30% | 90% | 0% | 100% | 0% | 30% | 70% | 0% | 40%
CCc1ccc(-c2ccc(Cl)c(F)c2)cc1C1=C(O)C(C)(C)[S+]([O-])C(C)(C)C1=O (centres unmarked) [Compound C-12] | 0% | 80% | 90% | 90% | 90% | 0% | 0% | 90% | 90% | 20%
COc1ccc(-c2ccc(Cl)c(F)c2)cc1C1=C(O)C(C)(C)OC(C)(C)C1=O [Compound A-96] | 0% | 50% | 90% | 30% | 100% | 0% | 0% | 0% | 0% | 0%
CCOc1ccc(-c2ccc(Cl)cc2F)cc1C1=C(O)C(C)(C)OC(C)(C)C1=O [Compound A-88] | 0% | 50% | 90% | 10% | 90% | 0% | 0% | 0% | 10% | 0%
